Assay [1] concerns HEK293. In words: Displacement of [3H]menthol from human TRPM8 S4b_M5 mutant expressed in HEK293 cell membranes at 100 uM by scintillation counting.
The nature of assay [2]: Activity at human TRPM8 S4b_M mutant expressed in HEK293 cells assessed as compound concentration causing leftward shift of voltage for half maximal activation. The assay is classed as cell-based.
A short description of assay [3]: Binding affinity to human TRPM8 S4b_M mutant expressed in HEK293 cell membranes.
For assay [4], the system named is Transient receptor potential cation channel subfamily M member 8 (Homo sapiens), Q7Z2W7 [L1009R]. The settings on record: HEK293, 100 uM.
Sequence of Transient receptor potential cation channel subfamily M member 8 (Homo sapiens), Q7Z2W7 [L1009R] (Q7Z2W7 whole entry L1009R): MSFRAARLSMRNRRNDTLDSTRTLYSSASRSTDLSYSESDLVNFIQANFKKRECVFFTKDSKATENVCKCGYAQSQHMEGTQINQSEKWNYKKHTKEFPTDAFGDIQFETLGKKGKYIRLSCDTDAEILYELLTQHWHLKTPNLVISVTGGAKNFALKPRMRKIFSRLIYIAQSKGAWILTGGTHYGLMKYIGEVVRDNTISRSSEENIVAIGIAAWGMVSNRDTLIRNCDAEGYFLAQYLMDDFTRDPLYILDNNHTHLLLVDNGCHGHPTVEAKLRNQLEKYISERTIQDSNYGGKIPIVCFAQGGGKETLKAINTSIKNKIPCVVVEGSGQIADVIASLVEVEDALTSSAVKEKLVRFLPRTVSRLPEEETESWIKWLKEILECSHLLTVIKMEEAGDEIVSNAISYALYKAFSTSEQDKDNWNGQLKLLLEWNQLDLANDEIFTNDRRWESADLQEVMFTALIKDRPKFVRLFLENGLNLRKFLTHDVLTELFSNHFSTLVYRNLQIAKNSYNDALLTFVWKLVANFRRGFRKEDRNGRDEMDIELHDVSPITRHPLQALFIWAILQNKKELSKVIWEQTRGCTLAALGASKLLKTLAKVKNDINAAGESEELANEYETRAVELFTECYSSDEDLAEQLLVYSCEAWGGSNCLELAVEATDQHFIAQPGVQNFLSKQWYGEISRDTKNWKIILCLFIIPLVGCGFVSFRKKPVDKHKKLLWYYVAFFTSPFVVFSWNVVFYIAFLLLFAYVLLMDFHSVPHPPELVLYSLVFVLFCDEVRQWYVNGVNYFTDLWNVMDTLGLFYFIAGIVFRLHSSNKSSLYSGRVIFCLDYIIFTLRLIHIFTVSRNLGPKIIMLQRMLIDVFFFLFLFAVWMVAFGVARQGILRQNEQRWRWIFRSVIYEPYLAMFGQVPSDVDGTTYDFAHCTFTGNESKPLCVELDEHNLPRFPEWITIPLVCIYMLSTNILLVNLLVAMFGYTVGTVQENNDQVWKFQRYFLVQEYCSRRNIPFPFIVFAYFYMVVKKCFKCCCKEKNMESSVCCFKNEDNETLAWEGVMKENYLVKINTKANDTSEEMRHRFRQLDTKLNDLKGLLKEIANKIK
For assay [5], the system named is Transient receptor potential cation channel subfamily M member 8 (Homo sapiens), Q7Z2W7 [Y745H]. The settings on record: HEK293, 100 uM.
Sequence of Transient receptor potential cation channel subfamily M member 8 (Homo sapiens), Q7Z2W7 [Y745H] (Q7Z2W7 whole entry Y745H): as the sequence (Q7Z2W7 whole entry L1009R) above, with Y745H, R1009L counted along it

Calls of active or inactive are those of the source. No cut-off for these calls is given here.

With `CC1CCC(C(C)C)C(O)C1` (stereo not given) [MENTHOL], the inhibition entry in assay [1] and in assay [5] was “inactive” each time. Also, the EC50 in assay [2] was 477 µM. In addition, binding in assay [3] was put at a Kd of 220 µM. Besides, the inhibition result in assay [4] was “Active”.

The EC50 is the concentration giving half of the maximal effect. A word on the Kd: it is the concentration at which binding is half-saturated.

The values are drawn from ChEMBL document CHEMBL1240324, “TRPM8 voltage sensor mutants reveal a mechanism for integrating thermal and chemical stimuli” (Nat Chem Biol, 2007).
